Consider four compounds from ChEMBL document CHEMBL1146739, “Alpha,alpha-trehalose derivatives bearing guanidino groups as inhibitors to HIV-1 Tat-TAR RNA interaction in human cells” (Bioorg Med Chem Lett, 2004).

This assay deals with Nucleic Acid. The experiment in a line: Inhibitory activity against TatTAR RNA interaction in human cells by Tat-dependent HIV-1 long terminal repeats (LTR)-driven chloramphenicol acetyltransferase assay at 3 uM concentration; decreased from 69.5 to 44.2. The format is cell-based. The arrangement: unit not given here.
Take `NC(N)=NCCCC(N)C(=O)NCC1OC(OC2OC(CNC(=O)C(N)CCCN=C(N)N)C(O)C(O)C2O)C(O)C(O)C1O` (centres undefined): the Activity is 44.2.

For the compound `N=C(N)NCCCC(=O)NCC1OC(OC2OC(CNC(=O)CCCNC(=N)N)C(O)C(O)C2O)C(O)C(O)C1O` (centres undefined), the Activity came out at 44.2.

In the case of `N=C(N)NCC(=O)NCC1OC(OC2OC(CNC(=O)CNC(=N)N)C(O)C(O)C2O)C(O)C(O)C1O` (centres undefined), the Activity worked out at 44.2.

In the case of `N=C(N)NCC1OC(OC2OC(CNC(=N)N)C(O)C(O)C2O)C(O)C(O)C1O` (centres undefined), the Activity is 44.2.
